Tests used:
Type in all cases: in vivo
[1] = test system: Green Peach Aphid (Myzus persicae); test: Test B.3 Control of green peach aphid, systemic, liquid artificial diet under membrane; details: 3 days
From the text: Test B.3 Control of Green Peach Aphid (Myzus persicae)
For evaluating control of green peach aphid (Myzus persicae) through systemic means the test unit consisted of 96-well-microtiter plates containing liquid artificial diet under an artificial membrane.
The compounds or mixtures were formulated using a solution containing 75% water and 25% DMSO. Different concentrations of formulated compounds or mixtures were pipetted into the aphid diet, using a custom built pipetter, at two replications.
(§1) For experimental mixtures in these tests identical volumes of both mixing partners at the desired concentrations respectively, were mixed together.
After application, 5 -8 adult aphids were placed on the artificial membrane inside the microtiter plate wells. The aphids were then allowed to suck on the treated aphid diet and incubated at about 23±1° C. and about 50±5% RH for 3 days. Aphid mortality and fecundity was then visually assessed.

[2] = test system: Yellow fever mosquito (Aedes aegyptii); test: Test B.4 Control of yellow fever mosquito, curative ultrasonic spraying of larvae in liquid diet; details: 2 DAT
Method: Test B.4 Control of Yellow fever mosquito (Aedes aegyptii) Test principle: Curative ultrasonic spraying of larvae in liquid diet
For evaluating control of Aedes aegyptii, the assay was conducted in microtiter plates (MTP's), wherein each well was filled with 0.2 ml of a Aedes aegyptii suspension of 5 to 15 freshly hatched larvae in a liquid diet of 200 ppm yeast in water, prepared directly before spraying.
The compounds were formulated at desired concentration using a solution containing 75% v/v water and 25% v/v DMSO. Different concentrations of formulated compounds were applied at 2.5 μl, using a ultrasonic spraying, at two replications.
The MTPs were sealed with the matching lids in a climatized test chamber at about 28° C.+1° C. and about 80+5% RH (relative humidity) and at 3500+500 lux of fluorescent light.
Assessment was made 2 days after treatment (DAT) using as criterion movement of the larvae. Valid assessment values were at level 0, 50 and 100, wherein 100 indicates no movement, 50 indicates few movement and 0 indicates moderate to high movement.

[3] = test system: Boll Weevil (Anthonomus grandis); test: Test B.2 Control of boll weevil, eggs on sprayed insect diet in 24-well microtiter plates; details: 5 days
Method: Test B.2 Control of Boll Weevil (Anthonomus grandis)
For evaluating control of boll weevil (Anthonomus grandis) the test unit consisted of 24-well-microtiter plates containing an insect diet and 20-30 A. grandis eggs.
The compounds or mixtures were formulated using a solution containing 75% water and 25% DMSO. Different concentrations of formulated compounds or mixtures were sprayed onto the insect diet at 20 μl, using a custom built micro atomizer, at two replications.
as §1
After application, microtiter plates were incubated at about 23±1° C. and about 50±5% RH for 5 days. Egg and larval mortality was then visually assessed.

[4] = test system: Tobacco Budworm (Heliothis virescens); test: Test B.6 Control of tobacco budworm, eggs on sprayed insect diet in 96-well microtiter plates; details: 5 days
Method: Test B.6 Control of Tobacco Budworm (Heliothis virescens)
For evaluating control of tobacco budworm (Heliothis virescens) the test unit consisted of 96-well-microtiter plates containing an insect diet and 15-25 H. virescens eggs.
The compounds or mixtures were formulated using a solution containing 75% water and 25% DMSO. Different concentrations of formulated compounds or mixtures were sprayed onto the insect diet at 10 μl, using a custom built micro atomizer, at two replications.
as §1
After application, microtiter plates were incubated at 28±1° C., 80±5% RH for 5 days. Egg and larval mortality was then visually assessed.

[5] = test system: Vetch Aphid (Megoura viciae); test: Test B.1 Control of vetch aphid, sprayed broad bean leaf disks in 24-well microtiter plates; details: 5 days
Method: Test B.1 Control of Vetch Aphid (Megoura viciae)
For evaluating control of vetch aphid (Megoura viciae) through contact or systemic means the test unit consisted of 24-well-microtiter plates containing broad bean leaf disks.
The compounds or mixtures were formulated using a solution containing 75% water and 25% DMSO. Different concentrations of formulated compounds or mixtures were sprayed onto the leaf disks at 2.5 μl, using a custom built micro atomizer, at two replications.
For experimental mixtures in these tests identical volumes of both mixing partners at the desired concentrations respectively, were mixed together. After application, the leaf disks were air-dried and 5-8 adult aphids placed on the leaf disks inside the microtiter plate wells. The aphids were then allowed to suck on the treated leaf disks and incubated at about 23±1° C. and about 50±5% RH (relative humidity) for 5 days. Aphid mortality and fecundity was then visually assessed.

[6] = test system: Caenorhabditis elegans; test: Test B.5 Control of Caenorhabditis elegans, curative ultrasonic spraying of nematodes in liquid diet; details: 4 DAT
Method: Test B.5 Control of Caenorhabditis elegans Test principle: Curative ultrasonic spraying of nematodes in liquid diet
For evaluating control of Caenorhabditis elegans the test unit consisted of microtiter plates (MTP), wherein each well was filled with 0.18 ml of a C. Elegans suspension containing 60 to 100 individuals of C. elegans at mixed life stages in a liquid diet.
The compounds were formulated at desired concentration using a solution containing 75% v/v water and 25% v/v DMSO. Different concentrations of formulated compounds were applied at 5 μl by ultrasonic spraying onto the liquid diet, at two replications. After application, the treated microtiterplates were incubated in a climatized test chamber at temperature of about 18+/−1° C. and 70+/−5% RH in the dark.
Assessment was made 4 days after treatment (DAT) using as criterion movement of nematodes. Valid assessment values were at level 0, 50 and 100, wherein 100 indicates no movement, 50 indicates few movement and 0 indicates moderate to high movement.

[7] = alpha cypermethrin alone, 10 ppm
[8] = alphacypermethrin alone, 0.4 ppm

CC1(C)C(C=C(Cl)Cl)C1C(=O)OC(C#N)c1cccc(Oc2ccccc2)c1 (stereo not drawn) [Alpha cypermethrin, alpha-cypermethrin] gave an Average control % [1, 7] of 0%, an Average control % [2, 7] of 0% and an Average control % [3, 7] of 0%. The Average control % [3, 8] was 0%, the Average control % [4, 8] was 0% and the Average control % ([5]; alpha cypermethrin alone, 2 ppm) was 0%.

Compound Cc1cc(F)c(-n2cnc3ccc(F)cc3c2=O)cc1[S+]([O-])CC(F)(F)F (stereo not drawn) [CE.I.31, 6-Fluoro-3-[2-fluoro-4-methyl-5-2(2,2,2-trifluoroethanesulfinyl)-phenyl]-3H-quinazolin-4-one] has an Average control % ([4]; CE.I.31 alone, 2000 ppm) of 0%.

With Cc1cc(F)c(-n2cnc3ccccc3c2=O)cc1SCC(F)(F)F [CE.I.34, 2-(2,2,2-trifluoroethylsufanyl)-4-(4-oxo-quinazolin-3-yl)-5-fluoro-toluol] the Average control % ([1]; CE.I.34 alone, 4 ppm) was 0%, the Average control % ([6]; CE.I.34 alone, 100 ppm) was 0% and the Average control % ([3]; CE.I.34 alone, 100 ppm) was 0%. For the same compound, the Average control % ([5]; CE.I.34 alone, 100 ppm) was 0%.

Work on Cc1cc(F)c(-n2cnc3ccccc3c2=O)cc1[S+]([O-])CC(F)(F)F (stereo not drawn) [CE.I.35, 2-(2,2,2-trifluoroethylsufinyl)-4-(4-oxo-quinazolin-3-yl)-5-fluoro-toluol] yielded an Average control % ([2]; CE.I.35 alone, 4 ppm) of 0%, an Average control % ([2]; CE.I.35 alone, 500 ppm) of 0% and an Average control % ([2]; CE.I.35 alone, 2500 ppm) of 0%. For the same compound, the Average control % ([3]; CE.I.35 alone, 500 ppm) was 0% and the Average control % ([3]; CE.I.35 alone, 2500 ppm) was 0%.

Compound CCOCn1c(-c2ccc(Cl)cc2)c(C#N)c(Br)c1C(F)(F)F [Chlorfenapyr, chlorfenapyr] has an Average control % ([6]; chlorfenapyr alone, 10 ppm) of 0%.

With CCC(C)(C)C(=O)OC1=C(c2ccc(Cl)cc2Cl)C(=O)OC12CCCCC2 [Spirodiclofen, spirodiclofen] the Average control % ([4]; spirodiclofen alone, 3.2 ppm) was 0%.

Cc1cc(C)c(C2=C(OC(=O)CC(C)(C)C)C3(CCCC3)OC2=O)c(C)c1 [Spiromesifen, spiromesifen] showed an Average control % ([3]; spiromesifen alone, 500 ppm) of 0%.

Compound abamectin has an Average control % ([2]; abamectin alone, 2 ppm) of 0%.

For spinosad, the Average control % ([2]; spinosad alone, 2 ppm) was 0%.

Source: patent US20140221201A1, “INSECTICIDAL ACTIVE MIXTURES COMPRISING ARYLQUINAZOLINONE COMPOUNDS” (priority 2011, published 2014)
